Results as given in ChEMBL document CHEMBL1159106, “Identification of potential and selective collagenase, gelatinase inhibitors from Crataegus pinnatifida” (Bioorg Med Chem Lett, 2010).

What was measured:
[1] = target: Matrix metalloproteinase-9 (Homo sapiens, UniProt P14780); assay: Inhibition of human neutrophils gelatinase B after 30 mins by fluorescence plate reader
[2] = target: 72 kDa type IV collagenase (Homo sapiens, UniProt P08253); assay: Inhibition of human rheumatoid synovial fibroblasts gelatinase A after 30 mins by fluorescence plate reader
[3] = Inhibition of collagenase type 4 after 30 mins by fluorescence plate reader

Chain of Matrix metalloproteinase-9 (P14780 whole entry): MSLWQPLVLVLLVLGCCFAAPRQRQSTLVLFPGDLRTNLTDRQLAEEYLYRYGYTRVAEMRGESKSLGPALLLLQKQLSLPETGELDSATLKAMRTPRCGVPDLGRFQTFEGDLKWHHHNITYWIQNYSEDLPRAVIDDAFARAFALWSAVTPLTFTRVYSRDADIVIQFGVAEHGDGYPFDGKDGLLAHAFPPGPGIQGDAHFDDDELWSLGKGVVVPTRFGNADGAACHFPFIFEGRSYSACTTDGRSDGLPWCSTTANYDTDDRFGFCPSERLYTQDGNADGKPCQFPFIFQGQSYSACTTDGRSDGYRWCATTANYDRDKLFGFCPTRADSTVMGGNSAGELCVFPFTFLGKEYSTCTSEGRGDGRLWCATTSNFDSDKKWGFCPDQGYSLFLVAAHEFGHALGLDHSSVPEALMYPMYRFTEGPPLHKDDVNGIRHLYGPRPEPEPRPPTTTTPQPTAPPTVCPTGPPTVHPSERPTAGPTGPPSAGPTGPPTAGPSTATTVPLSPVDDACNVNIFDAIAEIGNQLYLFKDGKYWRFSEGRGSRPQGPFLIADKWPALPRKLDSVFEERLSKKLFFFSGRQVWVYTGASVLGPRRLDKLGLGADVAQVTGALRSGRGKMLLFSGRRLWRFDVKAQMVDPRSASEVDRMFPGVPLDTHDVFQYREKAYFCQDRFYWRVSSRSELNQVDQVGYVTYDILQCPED
Chain of 72 kDa type IV collagenase (P08253 whole entry): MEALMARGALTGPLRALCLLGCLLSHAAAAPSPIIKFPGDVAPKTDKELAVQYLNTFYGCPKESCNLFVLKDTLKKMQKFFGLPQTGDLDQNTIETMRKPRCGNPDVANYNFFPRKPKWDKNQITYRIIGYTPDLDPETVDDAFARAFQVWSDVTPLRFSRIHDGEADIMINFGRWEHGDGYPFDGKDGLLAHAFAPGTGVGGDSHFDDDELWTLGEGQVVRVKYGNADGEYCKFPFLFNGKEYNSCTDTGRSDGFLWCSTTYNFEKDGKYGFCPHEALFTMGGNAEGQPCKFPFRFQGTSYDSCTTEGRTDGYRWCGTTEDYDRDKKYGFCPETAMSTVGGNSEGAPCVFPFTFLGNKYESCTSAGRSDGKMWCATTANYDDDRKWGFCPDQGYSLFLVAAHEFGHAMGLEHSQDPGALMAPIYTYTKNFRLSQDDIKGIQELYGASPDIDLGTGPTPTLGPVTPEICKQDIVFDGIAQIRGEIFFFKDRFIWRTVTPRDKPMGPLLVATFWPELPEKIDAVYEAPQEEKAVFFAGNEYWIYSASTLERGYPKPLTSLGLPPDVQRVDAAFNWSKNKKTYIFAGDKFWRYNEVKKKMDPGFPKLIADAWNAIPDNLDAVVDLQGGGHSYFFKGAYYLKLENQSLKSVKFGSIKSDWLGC

IC50 [1] | IC50 [2] | IC50 [3] | SMILES
7.63 µM | 7.63 µM | – | [H]/N=C(\N/C(=N/[H])NCCCCCCNC(=N)NC(=N)Nc1ccc(Cl)cc1)Nc1ccc(Cl)cc1 [CHLORHEXIDINE]
53.2 µM | 31.4 µM | 11.3 µM | Oc1cc(O)c2c(c1)O[C@H](c1ccc(O)c(O)c1)[C@H](O)[C@H]2c1c(O)cc(O)c2c1O[C@H](c1ccc(O)c(O)c1)[C@H](O)[C@H]2c1c(O)cc(O)c2c1O[C@H](c1ccc(O)c(O)c1)[C@H](O)C2 [PROCYANIDIN C1]
27.3 µM | 12.4 µM | 0.98 µM | Oc1cc(O)c2c(c1)O[C@H](c1ccc(O)c(O)c1)[C@H](O)[C@H]2c1c(O)cc(O)c2c1O[C@H](c1ccc(O)c(O)c1)[C@H](O)[C@H]2c1c(O)cc2c(c1O)C[C@@H](O)[C@@H](c1ccc(O)c(O)c1)O2
2.3 µM | 0.4 µM | 0.34 µM | Oc1cc(O)c2c(c1)O[C@H](c1ccc(O)c(O)c1)[C@H](O)[C@H]2c1c(O)cc2c(c1O)C(c1c(O)cc(O)c3c1O[C@H](c1ccc(O)c(O)c1)[C@H](O)C3)[C@@H](O)[C@@H](c1ccc(O)c(O)c1)O2 (stereo not given in full)
39.2 µM | 43.2 µM | 21.4 µM | Oc1cc(O)c2c(c1)O[C@H](c1ccc(O)c(O)c1)[C@H](O)[C@H]2c1c(O)cc(O)c2c1O[C@H](c1ccc(O)c(O)c1)[C@H](O)[C@H]2c1c(O)cc(O)c2c1O[C@H](c1ccc(O)c(O)c1)[C@H](O)[C@H]2c1c(O)cc(O)c2c1O[C@H](c1ccc(O)c(O)c1)[C@H](O)[C@H]2c1c(O)cc(O)c2c1O[C@H](c1ccc(O)c(O)c1)[C@H](O)C2
– | – | 7.63 µM | CC(C)C[C@H](NP(=O)(O)O[C@@H]1O[C@@H](C)[C@H](O)[C@@H](O)[C@H]1O)C(=O)N[C@@H](Cc1c[nH]c2ccccc12)C(=O)O [PHOSPHORAMIDON]
